How the values were obtained:
Assay in all cases: Plate-bound mCD1d fusion protein hybridoma stimulation assay (IL-2 ELISA)
Format in all cases: cell-based, mouse
24.8.A hybridoma = details: for IL-2 secretion: 24.8 A NKT hybridoma, plate-bound mCD1d-IgGFc2a fusion protein preincubated with lipid antigen
Text: (§1) The CD1d-restricted T cell clones 24.7, 24.8, 24.9 (NKT cell) and 14S.6, 14S.7, 14S.10, and 14S.15 (diverse TCRs) were all derived from spleen of wild type C57BL/6 mice, as described previously (Behar, S. M. et al., J. Immunol., 162:161-7 (1999)). To generate T cell hybridomas, the activated T cells were fused to the aminopterin-sensitive BW5147 αβTCR^− thymoma cell line using PEG1500, and hybrids were selected in HAT medium (Life Technologies, Gaithersburg, Md.). Resulting TT hybridomas were tested for recognition of RMA-S cells transfected with mCD1D1 compared to untransfected RMA-S cells, as described below. […] The hybridomas are distinguished from the original T cell clones by the addition of a letter to their names. The KT/7, KT/12, KT/22, and KT/23 and Vβ/9 NKT cell hybridomas were derived from NK1.1^+ T cells enriched from spleen of C57BL/6 mice by depletion of CD8+ T cells, naive T cells, and B cells by mAbs (anti-B220, CD8, and CD62L, or anti-CD8α, CD8β, and Me114) bound to magnetic microbeads, or to plastic. The purified cells were stimulated either by the anti-CD3 KT3 mAb (KT/7, KT/12, KT/22, KT/23), or by an anti-Vβ8.2 mAb (Vβ/9), and addition of IL-2 or IL-2 and IL-7. After 4-5 days of culture the cells were fused with BW5147 thymoma cells. The VII68, VIII24, XVI9, and XV104 diverse TCR hybridomas were generated from CD4^+ T cells from class 110 mice, as described previously (Cardell, S. et al., J. Exp. Med., 182:993-1004 (1995)). The DN32D3 hybridoma was derived as described (Lantz, O., and Bendelac, A., J. Exp. Med., 180:1097-106 (1994).
(§2) To test for recognition of the mCD1d fusion protein and purified or synthetic antigens, 96 well protein A coated plates (Pierce Chemical Company) were incubated with 400-600 ng/well of the fusion protein or a negative control IgG2a antibody, RPC5.4 or UPC10, in PBS, at pH 7.2. Lipid antigens were diluted into PBS and added where specified at the indicated molar ratio of antigen to fusion protein, (when not specified the ratio was 40:1). Protein A plates containing the fusion protein and antigen were incubated 24-48 hr at 37° C., then washed three times with 200 μl/well sterile PBS, pH 7.2, and two times with 200 μl/well sterile culture medium (containing RPMI supplemented with L-glutamine and penicillin/streptomycin, Life Technologies, Gaithersburg, Md., and 10% bovine calf serum, Hyclone Laboratories, Logan, Utah). For assays in which the PI was phospholipase treated, it was first diluted into 0.01M Tris, 0.15M NaCl, pH 7.5, containing 0.25 U PI-specific phospholipase C or 0.5 U phospholipase D (Sigma, St Louis, Mo.), and incubated 30 minutes at room temperature, then added to the protein A plates as described above. For assays in which the pH was varied during antigen incubation with the fusion protein, the fusion protein and α-GalCer were diluted into a 20 mM citrate/phosphate buffer of the specified pH, which contained 0.15 M NaCl, and after incubation, the samples were neutralized by addition of 1M Tris, pH 7.5. Hybridoma cells were added to fusion protein/antigen treated plates at a concentration of 1×10^5 cells/well, in a total volume of 150 μl/well. Assays were performed using 2-6 replicate wells. In some assays, an anti-mCD1d blocking antibody (19G11) was included at a final concentration of 20 μg/ml. The plates were incubated at 37° C. for 16-20 hr, and culture supernatants were withdrawn for analysis. Each experiment was performed at least three times.
(§3) IL-2 secreted in the hybridoma stimulation assays was quantitated in a double antibody sandwich ELISA, by comparison to a standard curve of purified murine IL-2 (Pharmingen, San Diego, Calif.). Hybridoma plate stimulation supernatants (used either neat or diluted) and serially diluted IL-2 standards were added to 96 well ELISA plates coated with a rat anti-mouse IL-2 capture antibody (Pharmingen).

14S.10.C hybridoma = details: 14S.10 C diverse TCR hybridoma; plate-bound mCD1d-IgGFc2a fusion protein preincubated with lipid antigen
Text: as §1, §2
as §3, with “(Pharmingen). […]” for “(Pharmingen).”

14S.15.A hybridoma = details: 14S.15.A diverse TCR hybridoma; plate-bound mCD1d-IgGFc2a fusion protein preincubated with lipid antigen
Text: as §1, §2
as §3, with “(Pharmingen). […]” for “(Pharmingen).”

14S.6.A hybridoma = details: 14S.6.A diverse TCR hybridoma; plate-bound mCD1d-IgGFc2a fusion protein preincubated with lipid antigen
Text: as §1, §2
as §3, with “(Pharmingen). […]” for “(Pharmingen).”

14S.7.N hybridoma = details: 14S.7.N diverse TCR hybridoma; plate-bound mCD1d-IgGFc2a fusion protein preincubated with lipid antigen
Text: as §1, §2
as §3, with “(Pharmingen). […]” for “(Pharmingen).”

24.7.C hybridoma = details: 24 7.C NKT hybridoma; plate-bound mCD1d-IgGFc2a fusion protein preincubated with lipid antigen
Text: as §1, §2
as §3, with “(Pharmingen). […]” for “(Pharmingen).”

24.9.E hybridoma = details: for IL-2 secretion: 24.9 E NKT hybridoma, plate-bound mCD1d-IgGFc2a fusion protein preincubated with lipid antigen
Text: as §1, §2
as §3, with “(Pharmingen). […]” for “(Pharmingen).”

DN32D3 hybridoma = details: DN32D3 NKT hybridoma; plate-bound mCD1d-IgGFc2a fusion protein preincubated with lipid antigen
Text: as §1, §2
as §3, with “(Pharmingen). […]” for “(Pharmingen).”

KT/12 hybridoma = details: KT/12 NKT hybridoma; plate-bound mCD1d-IgGFc2a fusion protein preincubated with lipid antigen
Text: as §1, §2
as §3, with “(Pharmingen). […]” for “(Pharmingen).”

KT/22 hybridoma = details: KT/22 NKT hybridoma; plate-bound mCD1d-IgGFc2a fusion protein preincubated with lipid antigen
Text: as §1, §2
as §3, with “(Pharmingen). […]” for “(Pharmingen).”

KT/23 hybridoma = details: KT/23 NKT hybridoma; plate-bound mCD1d-IgGFc2a fusion protein preincubated with lipid antigen
Text: as §1, §2
as §3, with “(Pharmingen). […]” for “(Pharmingen).”

KT/7 hybridoma = details: KT/7 NKT hybridoma; plate-bound mCD1d-IgGFc2a fusion protein preincubated with lipid antigen
Text: as §1, §2
as §3, with “(Pharmingen). […]” for “(Pharmingen).”

VII68 hybridoma = details: VII68 diverse TCR hybridoma; plate-bound mCD1d-IgGFc2a fusion protein preincubated with lipid antigen
Text: as §1, §2
as §3, with “(Pharmingen). […]” for “(Pharmingen).”

VIII24 hybridoma = details: VIII24 diverse TCR hybridoma; plate-bound mCD1d-IgGFc2a fusion protein preincubated with lipid antigen
Text: as §1, §2
as §3, with “(Pharmingen). […]” for “(Pharmingen).”

Vβ/9 hybridoma = details: Vβ/9 NKT hybridoma; plate-bound mCD1d-IgGFc2a fusion protein preincubated with lipid antigen
Text: as §1, §2
as §3, with “(Pharmingen). […]” for “(Pharmingen).”

XV104 hybridoma = details: XV104 diverse TCR hybridoma; plate-bound mCD1d-IgGFc2a fusion protein preincubated with lipid antigen
Text: as §1, §2
as §3, with “(Pharmingen). […]” for “(Pharmingen).”

XV19 hybridoma = details: XV19 diverse TCR hybridoma; plate-bound mCD1d-IgGFc2a fusion protein preincubated with lipid antigen
Text: as §1, §2
as §3, with “(Pharmingen). […]” for “(Pharmingen).”

Row | Substance | IL-2 secretion (24.8.A hybridoma) | IL-2 secretion (14S.10.C hybridoma) | IL-2 secretion (14S.15.A hybridoma) | IL-2 secretion (14S.6.A hybridoma) | IL-2 secretion (14S.7.N hybridoma) | IL-2 secretion (24.7.C hybridoma) | IL-2 secretion (24.9.E hybridoma) | IL-2 secretion (DN32D3 hybridoma) | IL-2 secretion (KT/12 hybridoma) | IL-2 secretion (KT/22 hybridoma) | IL-2 secretion (KT/23 hybridoma) | IL-2 secretion (KT/7 hybridoma) | IL-2 secretion (VII68 hybridoma) | IL-2 secretion (VIII24 hybridoma) | IL-2 secretion (Vβ/9 hybridoma) | IL-2 secretion (XV104 hybridoma) | IL-2 secretion (XV19 hybridoma) | IL-2 response to mCD1d fusion protein pre-treated with purified or synthetic lipid (24.9.E hybridoma; 24.9.E hybridoma) | IL-2 response to mCD1d fusion protein pre-treated with purified or synthetic lipid (24.8.A hybridoma; 24.8.A hybridoma, compared to untreated or buffer treated fusion protein)
1 | disialoganglioside [GD1a] | 0 (A “0” indicates a mean of less than 50 pg/ml IL-2 was secreted) | 0 (A “0” indicates a mean of less than 50 pg/ml IL-2 was secreted) | 0 (A “0” indicates a mean of less than 50 pg/ml IL-2 was secreted) | 0 (A “0” indicates a mean of less than 50 pg/ml IL-2 was secreted) | 0 (A “0” indicates a mean of less than 50 pg/ml IL-2 was secreted) | 0 (A “0” indicates a mean of less than 50 pg/ml IL-2 was secreted) | 0 (A “0” indicates a mean of less than 50 pg/ml IL-2 was secreted) | 0 (A “0” indicates a mean of less than 50 pg/ml IL-2 was secreted) | 0 (A “0” indicates a mean of less than 50 pg/ml IL-2 was secreted) | 0 (A “0” indicates a mean of less than 50 pg/ml IL-2 was secreted) | 0 (A “0” indicates a mean of less than 50 pg/ml IL-2 was secreted) | 0 (A “0” indicates a mean of less than 50 pg/ml IL-2 was secreted) | 0 (A “0” indicates a mean of less than 50 pg/ml IL-2 was secreted) | 0 (A “0” indicates a mean of less than 50 pg/ml IL-2 was secreted) | 0 (A “0” indicates a mean of less than 50 pg/ml IL-2 was secreted) | 0 (A “0” indicates a mean of less than 50 pg/ml IL-2 was secreted) | 0 (A “0” indicates a mean of less than 50 pg/ml IL-2 was secreted) | – | –
2 | gangliotriosyl ceramide [aGM2] | + (“+” indicates 50-250 pg/ml) | 0 (A “0” indicates a mean of less than 50 pg/ml IL-2 was secreted) | 0 (A “0” indicates a mean of less than 50 pg/ml IL-2 was secreted) | 0 (A “0” indicates a mean of less than 50 pg/ml IL-2 was secreted) | 0 (A “0” indicates a mean of less than 50 pg/ml IL-2 was secreted) | 0 (A “0” indicates a mean of less than 50 pg/ml IL-2 was secreted) | 0 (A “0” indicates a mean of less than 50 pg/ml IL-2 was secreted) | 0 (A “0” indicates a mean of less than 50 pg/ml IL-2 was secreted) | 0 (A “0” indicates a mean of less than 50 pg/ml IL-2 was secreted) | 0 (A “0” indicates a mean of less than 50 pg/ml IL-2 was secreted) | 0 (A “0” indicates a mean of less than 50 pg/ml IL-2 was secreted) | 0 (A “0” indicates a mean of less than 50 pg/ml IL-2 was secreted) | 0 (A “0” indicates a mean of less than 50 pg/ml IL-2 was secreted) | 0 (A “0” indicates a mean of less than 50 pg/ml IL-2 was secreted) | 0 (A “0” indicates a mean of less than 50 pg/ml IL-2 was secreted) | 0 (A “0” indicates a mean of less than 50 pg/ml IL-2 was secreted) | 0 (A “0” indicates a mean of less than 50 pg/ml IL-2 was secreted) | not recognized | –
3 | phosphatidylcholine [PC] | + (“+” indicates 50-250 pg/ml) | 0 (A “0” indicates a mean of less than 50 pg/ml IL-2 was secreted) | 0 (A “0” indicates a mean of less than 50 pg/ml IL-2 was secreted) | 0 (A “0” indicates a mean of less than 50 pg/ml IL-2 was secreted) | 0 (A “0” indicates a mean of less than 50 pg/ml IL-2 was secreted) | 0 (A “0” indicates a mean of less than 50 pg/ml IL-2 was secreted) | 0 (A “0” indicates a mean of less than 50 pg/ml IL-2 was secreted) | 0 (A “0” indicates a mean of less than 50 pg/ml IL-2 was secreted) | 0 (A “0” indicates a mean of less than 50 pg/ml IL-2 was secreted) | 0 (A “0” indicates a mean of less than 50 pg/ml IL-2 was secreted) | 0 (A “0” indicates a mean of less than 50 pg/ml IL-2 was secreted) | 0 (A “0” indicates a mean of less than 50 pg/ml IL-2 was secreted) | 0 (A “0” indicates a mean of less than 50 pg/ml IL-2 was secreted) | 0 (A “0” indicates a mean of less than 50 pg/ml IL-2 was secreted) | 0 (A “0” indicates a mean of less than 50 pg/ml IL-2 was secreted) | 0 (A “0” indicates a mean of less than 50 pg/ml IL-2 was secreted) | 0 (A “0” indicates a mean of less than 50 pg/ml IL-2 was secreted) | – | did not reproducibly significantly enhance reactivity

From patent publication US20020071842A1, “Soluble CD1 compositions and uses thereof” (priority 2000, published 2002)
